According to article PMC4674085, “Towards Prebiotic Catalytic Amyloids Using High Throughput Screening” (PLoS ONE, 2015):
Ends that are not written are not given here.

Experiments:
[1] = Time-dependent 4NPA hydrolysis rate during fibrillization; type: biochemical; settings: 50 μM peptide, 50 mM HEPES pH 7.3, 0.5 mM ZnCl2, 1 mM 4NPA, derivative of A400
Procedure: For more direct evidence that the amyloid is the catalytically active state, we attempted to measure the catalysis rate during the aggregation of 35 in order to correlate the amyloid formation with an increase in hydrolytic activity. Since the aggregation is too fast to measure a steady-state hydrolysis rate, an instantaneous time-dependent rate of 4NPA hydrolysis was calculated from the derivative of the A400 measurements (Fig 3A). In parallel, an identical sample was monitored at 218 nm for the β-strand-typical ellipticity (Fig 3C). Note that the absorbance of 50 mM HEPES prevented the measurement of a full spectrum (190–260 nm) under the identical aggregation conditions, however when performed with 10 mM HEPES, the spectrum clearly indicates a move towards increasing β-structure upon mixing the peptide with buffer at pH 7.3 (Figure B in S1 File). […]
Fig 3 Parallel kinetics of fibrillization and hydrolysis activity. Kinetics of fibrillization measured by CD (c) matches the appearance of the 4NPA hydrolysis activity (a). a) A stock of 35 at 200 μM in 10 mM HCl was diluted to a final concentration of 50 μM into 50 mM HEPES pH 7.3 with 0.5 mM ZnCl2 and 1 mM 4NPA. After ca. 10 s mixing time, the hydrolysis of 4NPA was recorded every 1 s for 20 min at 400 nm and the first derivative of this signal (the instantaneous rate) is plotted as a function of time. […]

[2] = Plate reader 4NPA hydrolysis kinetics of purified peptide amyloids at pH 7.3; type: biochemical; settings: 4NPA hydrolysis, pH 7.3 HEPES with zinc(II), 20 μM purified peptide
Procedure: The reaction buffer consisted of the same buffer as the fibrillization buffer without ZnCl2 and with 1.33 mM 4NPA prepared from a 100 mM stock in CH3CN. The samples of the amyloid library were mixed 1:3 with the reaction buffer yielding 40 μM peptide and, when present 250 μM zinc(II). The absorbance measurements were performed in a BMG Pherastar platereader with a 400 nm band-pass filter (10 nm bandwidth) in 96-well Nunclon Delta surface plates or 384-well Greiner Bio-One non-bind black μclear plates.
The kinetics assays performed on the purified peptides were prepared similarly except that the peptide concentration was 20 μM in the reaction. Furthermore, the various substrate concentrations and replicate samples were randomly distributed over the plate to minimize systematic errors. Various 4NPA concentrations (i.e. 0.1 mM, 0.2 mM, 0.4 mM, 0.6 mM, 1.0 mM) were added from a 100 times stock so that the final CH3CN concentration was always 1%. The linear part of the hydrolysis activity was fit with an extinction coefficient of ε = 9700 M^-1cm^-1 and corrected for the background reaction rate of buffer alone (v bg = 5.0 × 10^-6 Ms^-1) to obtain the initial reaction rate v 0. The average of the initial reaction rates at each substrate concentration were then fit to the Michaelis-Menten type kinetics to obtain k cat, K M and k cat/K M always calculated per monomer peptide. The background reaction rate was obtained similarly using 5 replicates.

[3] = Circular dichroism (CD), secondary structure of aggregates; type: physicochemical; settings: 50 μM peptide in 10 mM HCl, time-stable spectrum
[4] = Solubility of binary alternating Val/Ser peptides (supernatant vs precipitate, quantitated by total hydrolysis); type: physicochemical; settings: 200 μM peptide, 50 mM HEPES buffer pH 7.3, fibrillization for 2 days
From the text: A high β-aggregation propensity is essential for a combinatorial peptide library in the form of amyloids. To satisfy this requirement we profited from the well-documented observation that in aqueous environments, binary alternating sequences of hydrophobic-hydrophilic residues are prone to oligomerize into amphipathic β-structures. In these structures, the hydrophobic residues are buried at the interface of two β-sheets, leaving the hydrophilic residues on the surface. In keeping with the theme of a prebiotic fold, we wanted to use the shortest peptides that still guaranteed a high percentage of amyloidogenic peptides in the library. […]
For peptides that contain Tyr the concentration of the peptide was measured by diluting a 3–5 mM DMSO stock of the peptide 20-fold into 10 mM HCl and quickly measuring the UV spectrum to minimize the potential for aggregation (ε276 = 1500 M^-1cm^-1). Peptide 36 was quantitated during purification by C18 reversed phase HPLC using a calculated extinction coefficient of ε214 = 13963 M^-1cm^-1. The quantification of the VS peptides in Table 1 and peptide 34 was performed by total hydrolysis in 6 M HCl at 160°C for 2 h. The hydrolyzed samples were analyzed by C18 reversed-phase and the amount of Val or Ile was calculated by comparing the chromatographic peak areas to amino acid samples of known quantity.

Question: What does the source list for “Ac-YVHVHVAV-NH2 [Peptide 35, Ac-YVHVHVAV-CONH2]”?
Answer: activity of the monomeric peptide (by extrapolation to t = 0) [1]: not significantly above the background hydrolysis; k cat/K M ([2]; 0.1-1.0 mM 4NPA, 1% CH3CN, A400, Michaelis-Menten fit, per monomer peptide, triplicate (duplicate for 8, 27, 34, 35)): 7.38 ± 0.63 M⁻¹ s⁻¹; K M ([2]; Michaelis-Menten fit): 630 ± 100 µM; k cat ([2]; Michaelis-Menten fit, per monomer peptide): 0.463±0.039 10^-2s^-1; CD spectrum in 10 mM HCl [3]: mostly random coil

Question: For VSVSVSV-NH2 [VSVSVSV-CONH2], which “peptide in solution after centrifugation at 25,000 g” value [4] is on record?
Answer: less than 5%
